The target in one assay is T1, TRPV4 channel receptor (Homo sapiens, UniProt Q9HBA0).
T1 construct: expressed in transfected cells; host or cells: HEK cells
Put plainly: FLIPR assay using TRPV4 expressing HEK cells. Conditions: FLIPR method; read-out: pEC50 values (converted). The class given is cell-based. From the text:
Other techniques used to measure TRPV4 channel receptor activation in chondrocytes include, but are not limited to: FLIPR assay, measuring a compound's capability to reduce the amount of ADAMTSs produced and/or released in response to a catabolic stimulus by a cell comprising a TRPV4 channel receptor; measuring a compound's capability to reduce the amount of MMPs produced and/or released in response to a catabolic stimulus by a cell comprising a TRPV4 channel receptor; measuring a compound's capability to effect the amount of nitric oxide (NO) produced in response to a catabolic stimulus by a cell comprising a TRPV4 channel receptor; and measuring a compound's capability to attenuate the inhibition of matrix synthesis in response to a catabolic stimulus by a cell comprising a TRPV4 channel receptor.
(§1) All exemplary compounds of the present invention were assessed using at least one of the biological assays presented above. Compounds presented in the Examples had EC50 values of about 0.0001 μM to 1 μM as measured by Flex Station using bovine articular chondrocytes and pEC50 values between about 6.0 to 9.1 as measured by FLIPR assay using TRPV4 expressing HEK cells.

The next assay addresses T2, TRPV4 channel receptors (Bos taurus, UniProt A0A8F4X677).
T2 construct: obtained using this method in bovine articular chondrocytes; endogenous in cells; host or cells: bovine articular chondrocytes
Put plainly: Ca2+ influx by Fura-2 fluorescence on FlexStation in bovine articular chondrocytes. Format: cell-based.
Description: Ca^2+ influx mediated through TRPV4 channel receptors can be measured using articular chondrocytes from such species as, but not limited to, human, rat, canine, rabbit, monkey, and bovine, using standard techniques in the art such as, but not limited to, Fura-2 (Invitrogen/Molecular Probes, Eugene, Oreg.) fluorescence using a FlexStation (manufactured by Molecular Devices, Sunnyvale, Calif.). Table 1 lists biological data for several representative compounds obtained using this method in bovine articular chondrocytes.
as §1

T1 sequence (Q9HBA0 whole entry): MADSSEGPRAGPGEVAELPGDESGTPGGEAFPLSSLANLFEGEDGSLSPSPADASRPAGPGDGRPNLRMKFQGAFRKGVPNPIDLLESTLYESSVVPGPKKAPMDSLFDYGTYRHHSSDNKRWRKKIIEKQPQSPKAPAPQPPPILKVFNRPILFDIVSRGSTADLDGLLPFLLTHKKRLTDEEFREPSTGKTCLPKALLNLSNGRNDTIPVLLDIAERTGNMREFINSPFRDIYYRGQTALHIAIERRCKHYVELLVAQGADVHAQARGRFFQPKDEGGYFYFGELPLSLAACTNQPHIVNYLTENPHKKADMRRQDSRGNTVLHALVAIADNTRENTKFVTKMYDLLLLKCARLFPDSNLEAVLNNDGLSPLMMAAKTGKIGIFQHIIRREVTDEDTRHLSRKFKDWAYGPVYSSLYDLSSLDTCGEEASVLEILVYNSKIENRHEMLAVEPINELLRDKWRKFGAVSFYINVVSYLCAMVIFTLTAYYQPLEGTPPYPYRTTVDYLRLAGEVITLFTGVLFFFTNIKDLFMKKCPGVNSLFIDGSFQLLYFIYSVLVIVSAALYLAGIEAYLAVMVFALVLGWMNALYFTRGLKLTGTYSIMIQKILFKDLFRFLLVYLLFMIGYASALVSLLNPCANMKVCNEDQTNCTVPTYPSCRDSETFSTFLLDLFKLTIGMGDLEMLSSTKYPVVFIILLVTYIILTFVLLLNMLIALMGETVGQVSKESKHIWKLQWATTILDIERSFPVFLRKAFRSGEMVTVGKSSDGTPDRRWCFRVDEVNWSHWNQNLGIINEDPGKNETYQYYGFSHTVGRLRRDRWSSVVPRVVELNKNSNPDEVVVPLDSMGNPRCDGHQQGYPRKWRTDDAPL
T2 sequence (A0A8F4X677 1-871): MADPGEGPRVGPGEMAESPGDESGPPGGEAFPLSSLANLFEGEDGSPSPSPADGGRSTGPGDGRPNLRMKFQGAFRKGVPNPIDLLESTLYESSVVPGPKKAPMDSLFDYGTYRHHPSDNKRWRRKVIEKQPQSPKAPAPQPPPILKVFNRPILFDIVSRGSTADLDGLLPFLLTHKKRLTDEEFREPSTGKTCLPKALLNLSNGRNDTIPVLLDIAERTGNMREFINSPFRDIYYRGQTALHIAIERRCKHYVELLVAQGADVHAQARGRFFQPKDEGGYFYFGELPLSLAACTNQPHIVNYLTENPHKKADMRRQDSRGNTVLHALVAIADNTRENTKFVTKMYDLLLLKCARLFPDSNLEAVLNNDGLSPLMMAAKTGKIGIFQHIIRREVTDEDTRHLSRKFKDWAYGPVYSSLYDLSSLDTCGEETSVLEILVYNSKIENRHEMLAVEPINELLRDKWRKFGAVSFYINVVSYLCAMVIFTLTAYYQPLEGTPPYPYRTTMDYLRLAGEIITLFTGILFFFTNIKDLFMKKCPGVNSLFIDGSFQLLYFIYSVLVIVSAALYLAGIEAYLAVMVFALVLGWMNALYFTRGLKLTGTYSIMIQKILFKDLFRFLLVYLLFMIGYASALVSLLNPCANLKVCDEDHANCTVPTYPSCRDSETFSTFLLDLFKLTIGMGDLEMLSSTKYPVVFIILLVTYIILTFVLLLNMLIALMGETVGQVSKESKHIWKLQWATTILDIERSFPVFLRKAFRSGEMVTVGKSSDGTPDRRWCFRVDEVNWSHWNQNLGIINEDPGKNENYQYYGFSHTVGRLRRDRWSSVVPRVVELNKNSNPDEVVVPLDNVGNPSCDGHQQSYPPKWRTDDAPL

On to `CC(C)C[C@H](NC(=O)c1cc2ccccc2s1)C(=O)N1CCN(CCNS(=O)(=O)c2ccc(Cl)cc2Cl)CC1` [Example 1, N-((1S)-1-{[4-(2-{[(2,4-Dichlorophenyl)sulfonyl]amino}ethyl)-1-piperazinyl]carbonyl}-3-methylbutyl)-1-benzothiophene-2-carboxamide], for which the values for the EC50 at TRPV4 channel receptor and on TRPV4 channel receptors were 100 to 794 nM and 90 to 5010 nM, respectively.
For `CC(C)C[C@H](NC(=O)c1cc2ccccc2s1)C(=O)N1CCN(C(=O)[C@H](C)NS(=O)(=O)c2ccc(Cl)cc2Cl)CC1` [Example 9, N-((1S)-1-{[4-((2S)-2-{[(2,4-dichlorophenyl)sulfonyl]amino}propanoyl)-1-piperazinyl]carbonyl}-3-methylbutyl)-1-benzothiophene-2-carboxamide] the same measures were below 7.94 nM and 0.1 to 19 nM.
The like results for `CC(C)C[C@H](NC(=O)c1cc2ccccc2s1)C(=O)N1CCN(C(=O)CNS(=O)(=O)c2ccc(Cl)cc2Cl)CC1` [Example 3, N-((1S)-1-{[4-({[(2,4-Dichlorophenyl)sulfonyl]amino}acetyl)-1-piperazinyl]carbonyl}-3-methylbutyl)-1-benzothiophene-2-carboxamide] were, in that order, 10 to 79.4 nM and 20 to 89 nM.

The values are drawn from US20080318945A1, “Novel Compounds” (priority 2005, published 2008).
